Common to all, as to assay: inhibition of tumour cell growth, NCI panel, 48 h
In assay [1] the test system is HL-60(TB) leukemia.
Assay [2] concerns NCI-H23 lung.
Assay [3] deals with NCI-H460 lung.
Assay [4] relates to SW-620 colon.
The test system of assay [5] is M14 melanoma.
Assay [6] concerns KM12 colon.
Assay [7] has as its system CAKI-1 renal.
Assay [8] deals with SK-OV-3 ovarian.
Assay [9] concerns UO-31 renal.
Assay [10] relates to HCC-2998 colon.

SMILES strings stand for the structures.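 48-hour exposure; five concentrations; linearly interpolated endpoints. GI50: concentration for 50% inhibition of growth. Definition used: TGI = concentration required for complete inhibition of growth.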

For `C[N+](C)(C)CCOP(=O)(O)OP(=O)([O-])OCC1CCC(n2ccc(N)nc2=O)O1` (stereo not given), the TGI in [1], in [2], in assay [3], in assay [4], in assay [5] and in assay [6] was over 100 µM throughout. The TGI in assay [7], in [8], in assay [9] and in assay [10] was over 100 µM in each case.

Consider `Clc1ccc(-c2nc3c(-c4ccc(Cl)cc4)nc(-c4ccccc4)cn3c2-c2ccc(Cl)cc2)cc1`, for which the GI50 in assay [1], in [2], in assay [3], in assay [4], in assay [5] and in assay [6] was over 50 µM throughout. Further, the GI50 in [7] was 27.8 µM; in assay [8], 24.2 µM; in assay [9], over 50 µM; in assay [10] it was over 50 µM. Also, the TGI in [1], in assay [2], in assay [3], in assay [4], in [5] and in assay [6] was over 50 µM throughout. Besides, the TGI in assay [7], in [8], in assay [9] and in assay [10] was over 50 µM each time.

As to `COc1cc(CNC(=O)/C=C/C=C/c2ccc3c(c2)OCO3)ccc1OCc1cn(-c2ccc(Cl)c(Cl)c2)nn1`, the GI50 was 2.08 µM in assay [1]; 0.588 µM in assay [2]; 0.445 µM in assay [3]; 0.362 µM in assay [4]; 0.982 µM in assay [5]; 2.41 µM in [6]. The GI50 was 1.62 µM in assay [7], 2.54 µM in [8], 3.15 µM in assay [9] and 2.1 µM in [10]. Further, the TGI is 5.73 µM in assay [1]; 2.34 µM in assay [2]; 1.83 µM in assay [3]; 1.55 µM in [4]; 2.39 µM in assay [5]; 7.25 µM in assay [6]. In addition, the TGI in assay [7] came out at 3.57 µM; in assay [8], 6.57 µM; in [9] it was 13.7 µM; in [10], 4.74 µM.

Turning to `CCCCCCN(CCCCCC)CCCNc1nccc2ccccc12`, the GI50 in [1] was 1.77 µM; in assay [2], 1.8 µM; in [3], 1.4 µM; in assay [4], 1.29 µM; in [5], 1.42 µM; in [6] it was 1.81 µM. The GI50 in [7] is 1.92 µM; in [8] it was 2.09 µM; in [9], 1.35 µM; in assay [10] it was 1.98 µM. For the same compound, the TGI worked out at 4.26 µM in assay [1]; 3.83 µM in assay [2]; 2.88 µM in assay [3]; 2.96 µM in assay [4]; 2.89 µM in assay [5]; 3.56 µM in assay [6]. Moreover, the TGI in assay [7] was found to be 5.33 µM; in [8], 5.03 µM; in assay [9], 3.04 µM; in assay [10], 3.75 µM.

As to `CCCCCCCCCc1cc(O)c(O)cc1CCCCCCCCC`, the TGI in assay [1], in assay [2], in assay [3], in assay [4], in [5] and in assay [6] was over 10 µM in each case. For the same compound, the TGI in assay [7], in assay [8], in assay [9] and in assay [10] was over 10 µM throughout.

On to `C/C(=N/O)C1CC=C(S(=O)(=O)c2ccccc2)C1` (stereo not given), for which the TGI in [1], in assay [2], in assay [3], in assay [4], in assay [5] and in [6] was over 100 µM throughout. Moreover, the TGI in assay [7], in assay [8], in assay [9] and in assay [10] was over 100 µM throughout.

`Nc1nnc2nc(CC(=O)/C=C/c3ccccc3)c(=O)[nH]n12`: the TGI in assay [1], in [2], in [3], in assay [4], in assay [5] and in [6] was over 100 µM in each case. The TGI in assay [7], in assay [8], in [9] and in assay [10] was over 100 µM each time.

Take `CN(C)CCNC(=O)c1cccc2nc3ccc4ccccc4c3nc12`: the TGI in [1] was 0.494 µM; in assay [2], 0.221 µM; in assay [3], 0.135 µM; in assay [4] it was 0.313 µM; in assay [5], 1.14 µM; in assay [6], 0.876 µM. For the same compound, the TGI in [7] worked out at 0.541 µM; in assay [8], 2.06 µM; in assay [9], 0.433 µM; in assay [10] it was 0.282 µM.

Values taken from PubChem BioAssay (NCI).
